Source: PMC10082216 (Nature Communications, 2023)
Counter-ions that a name gives are not always drawn. Like-named read-outs stand apart in the source and are kept apart here.

Experiments:
[1] = system: mature stage V gametocytes (NF54 strain); test: High-throughput screening: killing effect by MitoTracker staining, primary screening at 1.11 µM and dose-response analysis; format: cell-based, Plasmodium falciparum; details: read-out: Killing IC50
Description: (§1) Screening was conducted as previously described. Briefly, mature stage V gametocytes (NF54 strain) were cultured in vitro, then exposed to the explored compounds and filtered thereafter through layers of microspheres (microsphiltration)[25],[28]. Stiffening activity was determined by comparing gametocytemia up and downstream from the microsphere layers after filtration of drug-exposed gametocytes in 384-well plates using a vacuum manifold. Gametocytemia was assessed using DNA (Sybr Green) and erythrocyte membrane (CellMask) staining. Killing effect was assessed by MitoTracker staining. We screened two small libraries, specifically the Pathogen Box from the Medicine for Malaria Venture and the Kinase Inhibitors Box from GSK (400 and 350 compounds, respectively, Fig. 1A, B), and furthermore the larger ReFrame repurposing library (12,805 compounds, Fig. 1C).
(§2) The Pathogen Box library (400 compounds, provided by MMV-Medicine for Malaria Ventures, Geneva, Switzerland), the Kinase Inhibitors Box library (350 compounds, provided by GSK-Glaxo SmithKline DDW Unit, Tres Cantos, Spain), and the ReFrame library (12,805 compounds provided by the California Institute for Biomedical Research-Calibr, La Jolla, CA, USA) were used according to the providers’ instructions. DMSO-solubilized compounds (10 mM stock concentration) were loaded in 384-well plates (Seahorse, cat. no. 201035−100). Two columns were left empty for the controls. For each compound, 5 nL were pre-spotted in a single well to reach a final concentration of 1.11 μM. The final volume for each well was 45 μl. Controls were prepared as follows: 22.5 nL of DMSO were loaded in 16 wells as negative controls (0.05% final concentration); 22.5 nL of NITD609 (provided by MMV, Geneva, Switzerland) 1 mM were loaded in 8 wells (0.5 μM final concentration), 17 nL of Calyculin A (Sigma, cat. no. C5552) […] were loaded in 6 wells (75 nM final concentration) and 225 nL of Gentian Violet (MolPort, cat. no. 002-133-551) 10 mM were loaded in the remaining 2 wells (50 μM final concentration). Plates were prepared in triplicate for the Pathogen Box and sextuplicate for the Kinase Inhibitors Box.
(§3) Plasmodium falciparum NF54 strain parasites (used for screening campaign) were cultured at 4% hematocrit in RBCs from informed blood donors (blood group A) as previously described. Parasites were taken from the -80 °C freezer, then rapidly melt for 1 minute in a 37 °C water bath. A saline solution was gently added to avoid the lysis. Firstly, NaCl dissolved at 12% in distilled water (1/5 of the volume measured in the cryovial) and then NaCl dissolved at 1.6% (9 times the cryovial’s volume). After that, fresh RBCs were added to allow parasites re-growth. Infected RBCs were kept in RPMI medium (Sigma-Aldrich, cat. no. R4130), supplemented with 10% of decomplemented human serum, hypoxanthine 50 mg/l (Sigma-Aldrich, cat. no. H9636). Biobank of Castilla y Leon and Centro de Transfusiones de Madrid as providers of human red blood cell concentrates. The production of gametocytes was induced from a 0.5% ring-stage parasitemia (day 0). Medium was changed daily to induce gametocytes differentiation, as previously described. At day 17, gametocytes were concentrated using a density gradient medium (NycoPrep 1.077, Progen cat. no. 1114550)[27]. Parasitemia was adjusted by FACS (SYBR-Green and MitoTracker double staining, 3–5% targeted). Hematocrit was adjusted to 0.5% by adding fresh RBCs and controlled by manual counting in a Neubauer chamber (Celeromics, cat. no. 717810). Finally, the gametocyte suspension was poured (45 μL/well) into the compound-containing 384-well microplate, then incubated 24 hours both for the screening campaign and the dose-response analysis. Both asexual and sexual stages were cultivated in RPMI 1640 supplemented with 25 mM HEPES, 50 mg/L hypoxanthine, 50 μg/mL gentami-cin, 10% pooled heat-inactivated human serum (A^+).

human subjects = details: human, in vivo; cited from earlier work
[2] = system: mature stage V gametocytes (NF54 strain); test: microbe, parasite or virus in culture; format: cell-based, Plasmodium falciparum; details: read-out: Stiffening IC50 (retention)
Description: as §1, §2, §3

[3] = Hit scoring on safety in human subjects and pharmacokinetics; details: for Score (PK): peak plasma concentration vs IC50
Excerpt: Hits from the ReFrame library were further selected based on safety, preferably oral administration (high score if oral), and potential availability for widespread use.

HepG2 = details: cited from earlier work
HEK293T = details: cited from earlier work
P.falciparum Dd2 = system: P.falciparum Dd2; design: method as in previously published reports (Table S1 legend); details: 72 h; results in previous assays; ref previously published reports (Table S1 legend); read-out: 72-h Dd2-SybrGreen PBFS assay IC50; cited from earlier work
[4] = stage V gametocytes NF54, 24 h, dose-response analysis, N/A = not active in dose-response analysis
[5] = Plasmodium falciparum, NF54, 24 h, stage V gametocytes NF54, 24 h, dose-response analysis, N/A = not active in dose-response analysis
[6] = read-out: Cellular cytotoxicity assay IC50, HepG2, 72 h, second value of cell, ref previously published reports (Table S1 legend)
[7] = read-out: Cellular cytotoxicity assay IC50, HEK293T, 72 h, first value of cell, ref previously published reports (Table S1 legend)
[8] = Plasmodium falciparum, NF54, 24 h
[9] = Plasmodium falciparum, stage V gametocytes NF54, 24 h, dose-response analysis, N/A = not active in dose-response analysis

Row | Structure (SMILES) | IC50 [1, 4] | rate of life-threatening adverse events (human subjects) | IC50 [2, 4] | Score (safety) [3] | Score (PK) [3] | IC50 [1, 5] | IC50 (HepG2; [6]) | IC50 (HEK293T; [7]) | IC50 [2, 8] | IC50 (P.falciparum Dd2) | IC50 [1, 9] | IC50 (HepG2) | IC50 (HEK293T) | IC50 [1, 8] | Score (safety) ([3]; human)
1 | CC(C)[C@H](C(=O)Nc1ccc(C(=O)NO)cc1)c1ccccc1 [AR-42] | 1500 nM | > 25% | 1900 nM | 0 | 0 | – | – | – | – | – | – | – | – | – | –
2 | CCCCC(CC)CNC(=N)NC(=N)NCCCCCCNC(=N)NC(=N)NCC(CC)CCCC (stereo not drawn) [Alexidine dihydrochloride] | – | – | – | – | – | 41000 nM | 3060 nM | 3330 nM | 550 nM | 32 nM | – | – | – | – | –
3 | CO[C@H]1/C=C\C=C(/C)C(=O)NC2=CC(=O)C(NCCN(C)C)=C(C[C@@H](C)C[C@H](OC)[C@H](O)[C@@H](C)/C=C(\C)[C@@H]1OC(N)=O)C2=O [Alvespimycin hydrochloride] | – | – | – | – | – | – | 14 nM | 98 nM | 960 nM | 272 nM | 1750 nM | – | – | – | –
4 | Cc1nc2c(s1)C(O)=C/C(=N\CCN(C)C)C2=O [BN-82685] | – | – | – | – | – | 2800 nM | 1890 nM | 2920 nM | 4600 nM | 1740 nM | – | – | – | – | –
5 | C(=N\NC1=NCCN1)/c1c2ccccc2c(/C=N/NC2=NCCN2)c2ccccc12 [Bisantrene HCl] | 2200 nM | – | – | – | – | – | 62 nM | 54 nM | – | 65 nM | – | – | – | – | –
6 | O=C(NO)c1cnc(N2C[C@@H]3[C@H](C2)[C@H]3NCc2ccc3cc(F)ccc3n2)nc1 [CHR-3996] | – | – | – | 0 | 0 | 70 nM | – | – | 7230 nM | 15 nM | – | 127 nM | 728 nM | – | –
7 | CN(C)CCOc1ccc2[nH]c(C(=O)NCC#Cc3ccc(C(=O)NO)cc3)cc2c1 [CRA-026440] | 16000 nM | – | 550 nM | – | – | – | – | – | – | 63 nM | – | 11 nM | 81 nM | – | –
8 | CC[C@H]1CN2CCc3cc(OC)c(OC)cc3[C@@H]2C[C@@H]1C[C@H]1NCCc2cc(O)c(OC)cc21 [Cephaeline] | – | – | – | – | – | – | 62 nM | 14 nM | 3800 nM | 28 nM | – | – | – | 1000 nM | –
9 | C[C@@H]1O[C@@H](O[C@H]2CC[C@]3(C=O)[C@H]4CC[C@]5(C)[C@@H](C6=CC(=O)OC6)CC[C@]5(O)[C@@H]4CC[C@]3(O)C2)[C@H](O)[C@H](O)[C@H]1O [Convallatoxin] | – | – | – | – | – | – | 33 nM | 26 nM | 50 nM | 16 nM | – | – | – | – | –
10 | CO[C@H]1C[C@H](O[C@H]2CC[C@]3(C=O)[C@H]4CC[C@]5(C)[C@@H](C6=CC(=O)OC6)CC[C@]5(O)[C@@H]4CC[C@]3(O)C2)O[C@H](C)[C@H]1O [Cymarine] | – | – | – | – | 0 | – | 102 nM | 71 nM | 330 nM | 9950 nM | – | – | – | – | 0
11 | O=C(NCCN1CCCC1)c1cc(-c2ccc(CN3CCOCC3)cc2)nc2ccc(F)cc12 [DDD498] | – | – | – | 0 | 0 | 1700 nM | – | – | 2600 nM | 4 nM | – | – | – | – | –
12 | CC1CCC(C(C)C)C(OC(=O)C[N+](C)(C)CCCCCCCCCC[N+](C)(C)CC(=O)OC2CC(C)CCC2C(C)C)C1 (stereo not drawn) [Decamethoxine] | 8100 nM | – | 1000 nM | – | – | – | – | – | – | 61 nM | – | 4300 nM | 3300 nM | – | –
13 | O=C(CC1NCCCC1O)Cn1cnc2cc(Br)c(Cl)cc2c1=O (stereo not drawn) [Halofuginone] | – | – | – | – | – | – | – | – | 4300 nM | 1 nM | 240 nM | 36 nM | 89 nM | – | 3
14 | COC(=O)C[C@](O)(CCCC(C)(C)O)C(=O)O[C@@H]1C(OC)=C[C@]23CCCN2CCc2cc4c(cc2[C@H]13)OCO4 [Homoharringtonine] | – | – | – | – | – | 1730 nM | – | – | 2300 nM | 7 nM | – | 122 nM | 32 nM | – | –
15 | CC(=O)O[C@H]1C[C@H](O[C@H]2[C@@H](O)C[C@H](O[C@H]3[C@@H](O)C[C@H](OC4CC[C@@]5(C)[C@H](CC[C@@H]6[C@@H]5CC[C@]5(C)[C@@H](C7=CC(=O)OC7)CC[C@]65O)C4)O[C@@H]3C)O[C@@H]2C)O[C@H](C)[C@H]1O[C@@H]1O[C@H](CO)[C@@H](O)[C@H](O)[C@H]1O (stereo partly drawn) [Lanatoside A] | – | – | – | – | 0 | – | 136 nM | 171 nM | 860 nM | 9950 nM | – | – | – | – | 0
16 | COc1cccc2c1ccc1nc3cccc(C(=O)N[C@H](C)CN(C)C)c3nc12 [MLN 576] | – | – | 5020 nM | 0 | 0 | – | – | – | – | 2040 nM | – | 413 nM | 218 nM | – | –
17 | N=C(N)c1ccc(C=C2c3ccccc3-c3ccccc32)cc1 [Paranyline] | – | – | – | 0 | 0 | 1900 nM | 650 nM | 1420 nM | 3200 nM | 1870 nM | – | – | – | – | –
18 | CO[C@H]1[C@H](O)[C@H](O[C@H]2CC[C@@]3(C=O)[C@H](CC[C@@H]4[C@@H]3CC[C@]3(C)[C@@H](C5=CC(=O)OC5)CC[C@]43O)C2)O[C@@H](C)[C@@H]1O [Peruvoside] | – | – | – | – | – | – | 32 nM | 20 nM | 2680 nM | 9950 nM | – | – | – | – | –
19 | CCCCCCCCN=c1ccn(CCCCCCCC)cc1 [Pirtenidine] | 2780 nM | – | 3650 nM | 0 | 0 | – | – | – | – | 615 nM | – | 285 nM | 1480 nM | – | –
20 | C[C@@H]1O[C@@H](O[C@@H]2C=C3CC[C@@H]4[C@H](CC[C@]5(C)[C@@H](c6ccc(=O)oc6)CC[C@]45O)[C@@]3(C)CC2)[C@H](O)[C@H](O)[C@H]1O [Proscillaridin] | – | – | – | – | 0 | – | 14 nM | 9 nM | 80 nM | 9950 nM | 300 nM | – | – | – | 0
21 | CC1=C(C)C(=O)C(CCCCCCCCCC[P+](c2ccccc2)(c2ccccc2)c2ccccc2)=CC1=O [SkQ1] | 3850 nM | – | 1900 nM | – | – | – | – | – | – | 1050 nM | – | 3130 nM | 778 nM | – | –
22 | COC(=O)C1=C(C)NC(C)=C(C(=O)OC)C1c1cc([N+](=O)[O-])ccc1OCCCCNCC(O)COc1ccccc1 (stereo not drawn) [YM 161514] | 5550 nM | – | 3600 nM | 0 | 0 | – | – | – | – | 2260 nM | – | 3970 nM | – | – | –
